In PMC8076300, “A novel cystathionine γ-lyase inhibitor, I194496, inhibits the growth and metastasis of human TNBC via downregulating multiple signaling pathways” (Scientific Reports, 2021):

Molecular target: T1, cystathionine γ-lyase (CSE) (Homo sapiens, UniProt P32929)
T1 construct: gene CTH
Assay: methylene blue H2S production assay with purified recombinant CSE, L-cysteine substrate
Format: biochemical

T1 sequence (P32929 whole entry): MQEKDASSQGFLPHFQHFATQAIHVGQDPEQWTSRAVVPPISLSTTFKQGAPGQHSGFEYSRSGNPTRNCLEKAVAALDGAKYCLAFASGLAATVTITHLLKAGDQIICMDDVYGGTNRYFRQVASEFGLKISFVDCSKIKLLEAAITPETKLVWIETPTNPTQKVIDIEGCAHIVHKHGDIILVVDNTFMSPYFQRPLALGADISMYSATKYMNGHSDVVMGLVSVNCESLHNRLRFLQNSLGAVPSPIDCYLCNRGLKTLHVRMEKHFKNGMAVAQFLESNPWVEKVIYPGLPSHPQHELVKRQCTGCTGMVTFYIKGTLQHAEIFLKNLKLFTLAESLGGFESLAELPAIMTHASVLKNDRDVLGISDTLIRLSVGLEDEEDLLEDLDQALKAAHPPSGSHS

IC50: 790 µM
SMILES: COc1ccc(-c2cc(C(F)F)n3ncc(C(=O)Nc4ccc(S(=O)(=O)Nc5ccccc5OC)cc4)c3n2)cc1 [I194496, 7-(difluoromethyl)-N-{4-[(2-methoxyanilino)sulfonyl]phenyl}-5-(4-methoxyphenyl)pyrazolo[1,5-a]pyrimidine-3-carboxamide]
